Test results reported in US20040228930A1, “Treatment for hemorrhagic shock” (priority 2002, published 2004).

Key:
Assay type in all cases: in vivo
[1] = test system: il-10−/− mice subjected to HS/R; assay: Lung MPO activity in il-10−/− mice subjected to HS/R
mice subjected to HS/R [2] = assay: Lung myeloperoxidase (MPO) activity in mice subjected to HS/R
[3] = test system: hemorrhage-induced liver hypoxia; assay: EF5 hypoxic imaging of liver in hemorrhaged mice
Experimental: (§1) Hemorrhagic shock was induced in mice as follows: C57/BL6 or il-10^−/− mice (Jackson Laboratories) (n=3/group) weighing 20-26 grams were anesthetized with pentobarbital (70 mg/kg; IP). The right and left femoral arteries were cannulated. The left arterial catheter was connected to a monitor to follow MAP and heart rate. Over 10 minutes, blood was withdrawn via the right catheter while monitoring blood pressure to achieve an MAP of 25 mmHg. Blood was withdrawn and returned to the animal as necessary in order to maintain a MAP of 25 mmHg. Sham animals were cannulated but not subjected to hemorrhage. At the end of the shock period (90-150 minutes), mice were resuscitated with the shed blood plus two times that volume with Ringer's lactate solution over 15-30 minutes. Animals were sacrificed 4-24 hours following the initiation of resuscitation and blood, liver, lungs, and intestines were collected.
The technique of observing uptake of EF5 (2-[2-nitro-1H-imidazol-1-yl]-N-(2,2,3,3,3-pentafluoropropyl) acetamide) to monitor tissue hypoxia is well established and reliable. […] Intensity of staining was determined by measuring mean fluorescence in 10 different sections per animal (n=5 per group; MetaMorph®). […] These forms of the compound bind irreversibly to proteins within the cell, which can then be detected by immunohistochemistry. […]

mice subjected to HS/R [4] = assay: Intestinal histology (H&E) in mice subjected to HS/R; conditions: CO 250 ppm throughout HS/R, 4 hours after resuscitation
Experimental: as §1
Harvested intestines were flushed and fixed in 2% paraformaldehyde for 2 hours and then 30% sucrose for 12 hours. Specimens were frozen slowly in cold 2-methylbutane. Sections were stained using hematoxylin and eosin (H&E) and architectural changes were evaluated.
(§2) Mice were exposed to CO at a concentration of 250 ppm. Briefly, 1% CO in air was mixed with air (21% oxygen) in a stainless steel mixing cylinder and then directed into a 3.70 ft^3 glass exposure chamber at a flow rate of 12 L/min. […]

IL-6 = assay: Serum IL-6 by ELISA in mice subjected to HS/R; conditions: CO 250 ppm throughout HS/R, 4 hours after resuscitation, P<0.05 vs untreated HS/R mice
Experimental: as §1
(§3) Serum levels of the cytokines interleukin-6 (IL-6), tumor necrosis factor alpha (TNF-α), and interleukin-10 (IL-10) were determined by enzyme-linked immunosorbent assay (ELISA) (R&D systems) according to the manufacturer's instructions. These cytokines were measured because they mediate inflammation. Levels of pro-inflammatory cytokines can increase following hemorrhagic shock and can exacerbate hemodynamics and contribute to the development of multiple organ dysfunction. […]

mice subjected to HS/R [5] = assay: Serum ALT (liver injury) in mice subjected to HS/R
Experimental: as §1
(§4) A colorimetric analysis for serum alanine aminotransferase (ALT) level was used to determine whether liver injury occurred in mice subjected to HS/R. The alanine aminotransferase test is one of a group of tests known as liver function tests and is used to monitor damage to the liver. Alanine aminotransferase is an enzyme that is normally expressed in the liver and under normal circumstances is present in serum samples at very low levels. Increased levels of ALT in the serum are indicative of liver cell death and/or liver failure.
as §2, with “L/min. A CO analyzer (Interscan, Chatsworth, Calif.) was used to measure CO levels continuously in the chamber. CO concentrations were maintained at 250 ppm at all times. Mice were placed in the exposure chamber as required.” for “L/min.”

[6] = test system: il-10−/− mice subjected to HS/R; assay: Serum ALT in il-10−/− mice subjected to HS/R
Experimental: as §1
as §4, with “Increased levels of ALT in the serum are indicative of liver cell death and/or liver failure.” left out

IL-10 = assay: Serum IL-10 by ELISA in mice subjected to HS/R; conditions: CO 250 ppm throughout HS/R, 4 hours after resuscitation, P<0.05 vs sham and shock controls
Experimental: as §1, §3

[7] = CO 250 ppm throughout HS/R, 4 hours after resuscitation, P<0.05

## [C-]#[O+] [CO, carbon monoxide]
[1]
  protection against HS/R-induced lung injury (lung MPO activity): did not appear to protect
Mice subjected to HS/R [2]; [7]
  lung MPO activity compared to untreated mice: significantly lowered
Mice subjected to HS/R [2]; CO initiated during resuscitation only, after 4 hours
  lung MPO activity: significantly improved
[3]; CO-treated sham controls, 250 ppm
  liver hypoxia (EF5) compared to air-treated sham controls: no increase
[3]; shocked mice, CO 250 ppm initiated at onset of shock, 90 minutes after initiation of shock, P<0.05 vs air-treated shocked mice
  increase in liver EF5 staining compared to air-treated sham controls: 3.7±0.7 fold
Mice subjected to HS/R [4]
  intestinal histology of CO-treated shocked mice: more closely resembled CO- and air-treated sham controls
IL-6
  HS/R-induced increase in serum IL-6: significantly abrogated
Mice subjected to HS/R [5]; [7]
  serum ALT compared to untreated mice: significantly lowered
Mice subjected to HS/R [5]; CO during resuscitation only, 24 hours after resuscitation
  serum ALT compared to untreated shocked mice: significantly lower
Mice subjected to HS/R [5]; CO initiated during resuscitation only, 4-hour time point following resuscitation (data not shown)
  protection against liver injury: no demonstrable protection
[6]
  protection against HS/R-induced liver injury (serum ALT): did not appear to protect
IL-10
  increase in serum IL-10 levels in shocked mice: 5.4 fold
